Measurements: patent US11753407B2, “Compounds for treating spinal muscular atrophy” (PTC Therapeutics, Inc., priority 2012, dated 2023)

How the values were obtained:
[1] = system: Smn protein in SMA patient fibroblast cells (GM03813); test: Smn protein assay in cultured cells (SMN HTRF); type: cell-based, human; conditions: SMA patient fibroblast cells, 48 hours; for maximum fold (Fold) increase of Smn protein: 7-point concentration data, fold relative to vehicle control; for EC1.5x for Smn protein expression: 7-point concentration curve, SMN HTRF, concentration producing 1.5 times Smn protein vs DMSO vehicle control
Outline: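 Smn protein quantified by HTRF with anti-SMN d2/kryptate pair, 665/620 nm ratio blank-corrected, in RIPA lysates of GM03813 fibroblasts after 48 h compound exposure (7 concentrations, 3.16-fold steps, triplicates). Values: concentration producing 1.5× vehicle Smn level, and maximal fold increase.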

[2] = system: SMN2 minigene mRNA (SMN2-A minigene) in HEK293H cells; test: SMN2 minigene mRNA splicing RT-qPCR assay in cultured cells; type: cell-based, human; conditions: Homo sapiens, HEK293-H; concentration increasing full length SMN2 mRNA 1.5-fold relative to vehicle-treated cells; HEK293H cells with SMN2-A minigene, 24 hours, 7-point concentration data; read-out: EC1.5x for production of full length SMN2 mRNA
Outline: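 EC1.5× = concentration raising full-length SMN2 minigene mRNA 1.5-fold over vehicle, from 7-point curves in duplicate. Stably transfected HEK293H cells exposed 24 h at 37 °C; lysates assayed by multiplex RT-qPCR, minigene FL signal normalized to GAPDH via modified ΔΔCt.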

| Compound | melting point | maximum fold (Fold) increase of Smn protein [1] | EC (1.5-fold increase) [2] | EC1.5x for Smn protein expression [1] |
| --- | --- | --- | --- | --- |
| C[C@H]1CN(c2ccc3nc(-c4ccc(N(C)C)cc4)cc(=O)n3c2)CCN1 [Compound 54, 2-[4-(dimethylamino)phenyl]-7-[(3S)-3-methylpiperazin-1-yl]-4H-pyrido[1,2-a]pyrimidin-4-one] | 199 to 202 °C | * (A maximum fold increase of ≤1.2 is indicated by one star (*)) | 1 to 3 µM |  |
| Cc1ccc(-c2cc(=O)n3cc(N4CCNCC4)ccc3n2)cc1C [Compound 55, 2-(3,4-dimethylphenyl)-7-(piperazin-1-yl)-4H-pyrido[1,2-a]pyrimidin-4-one] | 186 to 188 °C | * (A maximum fold increase of ≤1.2 is indicated by one star (*)) | 1 to 3 µM |  |
| Cc1ccc(-c2cc(=O)n3cc(N4CCN[C@@H](C)C4)ccc3n2)cc1C [Compound 56, 2-(3,4-dimethylphenyl)-7-[(3S)-3-methylpiperazin-1-yl]-4H-pyrido[1,2-a]pyrimidin-4-one] | 207 to 209 °C | * (A maximum fold increase of ≤1.2 is indicated by one star (*)) | 1 to 3 µM |  |
| C[C@H]1CN(c2ccc3nc(-c4cccc(N(C)C)c4)cc(=O)n3c2)CCN1 [Compound 58, 2-[3-(dimethylamino)phenyl]-7-[(3S)-3-methylpiperazin-1-yl]-4H-pyrido[1,2-a]pyrimidin-4-one] | 144 to 146 °C | * (A maximum fold increase of ≤1.2 is indicated by one star (*)) | 3 to 30 µM |  |
| C[C@H]1CN(c2ccc3nc(-c4ccc(OC(F)F)cc4)cc(=O)n3c2)CCN1 [Compound 60, 2-[4-(difluoromethoxy)phenyl]-7-[(3S)-3-methylpiperazin-1-yl]-4H-pyrido[1,2-a]pyrimidin-4-one] | 166 to 168 °C | * (A maximum fold increase of ≤1.2 is indicated by one star (*)) | 1 to 3 µM |  |
| O=c1cc(-c2cccc([N+](=O)[O-])c2)nc2ccc(N3CCNCC3)cn12 [Compound 62, 2-(3-nitrophenyl)-7-(piperazin-1-yl)-4H-pyrido[1,2-a]pyrimidin-4-one] | 175 °C (dec.) | ***** (a fold increase >1.65 is indicated by five stars (*****)) | 0.1 to 0.3 µM | *** (an EC1.5× between >0.3 μM and ≤1 μM is indicated by three stars (***)) |
| Cc1ccc(-c2cc(=O)n3cc(N4CCNCC4)ccc3n2)cc1 [Compound 63, 2-(4-methylphenyl)-7-(piperazin-1-yl)-4H-pyrido[1,2-a]pyrimidin-4-one] | 192 to 195 °C | ** (a fold increase between >1.2 and ≤1.35 is indicated by two stars (**)) | 1 to 3 µM |  |
| COc1ccc(-c2cc(=O)n3cc(N4CC5CCC(C4)N5)ccc3n2)cc1OC [Compound 66, 7-(3,8-diazabicyclo[3.2.1]oct-3-yl)-2-(3,4-dimethoxyphenyl)-4H-pyrido[1,2-a]pyrimidin-4-one] | 158 to 161 °C | *** (a fold increase between >1.35 and ≤1.5 is indicated by three stars (***)) | 0.3 to 1 µM | * (An EC1.5× for Smn protein expression between >3 μM and ≤10 μM is indicated by one star (*)) |
| COc1ccc(-c2cc(=O)n3cc(N4CCNCC4)ccc3n2)cc1C(F)(F)F [Compound 67, 2-[4-methoxy-3-(trifluoromethyl)phenyl]-7-(piperazin-1-yl)-4H-pyrido[1,2-a]pyrimidin-4-one] | 177 to 181 °C | *** (a fold increase between >1.35 and ≤1.5 is indicated by three stars (***)) | 0.1 to 0.3 µM | *** (an EC1.5× between >0.3 μM and ≤1 μM is indicated by three stars (***)) |
| COc1ccc(-c2cc(=O)n3cc(N4CCN[C@H](C)C4)ccc3n2)cc1C(F)(F)F [Compound 68, 2-[4-methoxy-3-(trifluoromethyl)phenyl]-7-[(3R)-3-methylpiperazin-1-yl]-4H-pyrido[1,2-a]pyrimidin-4-one] | 205 to 212 °C | ** (a fold increase between >1.2 and ≤1.35 is indicated by two stars (**)) | 0.1 to 0.3 µM |  |

Continued, in another order:

| melting point | Compound | maximum fold (Fold) increase of Smn protein [1] | EC (1.5-fold increase) [2] | EC1.5x for Smn protein expression [1] |
| --- | --- | --- | --- | --- |
| 142 to 146 °C | O=c1cc(-c2ccccc2F)nc2ccc(N3CCNCC3)cn12 [Compound 51, 2-(2-fluorophenyl)-7-(piperazin-1-yl)-4H-pyrido[1,2-a]pyrimidin-4-one] | ** (a fold increase between >1.2 and ≤1.35 is indicated by two stars (**)) | 3 to 30 µM |  |
| 211 to 215 °C | CN(C)c1ccc(-c2cc(=O)n3cc(N4CCNCC4)ccc3n2)cc1 [Compound 53, 2-[4-(dimethylamino)phenyl]-7-(piperazin-1-yl)-4H-pyrido[1,2-a]pyrimidin-4-one] | * (A maximum fold increase of ≤1.2 is indicated by one star (*)) | 1 to 3 µM |  |
| 178 to 180 °C | CN(C)c1cccc(-c2cc(=O)n3cc(N4CCNCC4)ccc3n2)c1 [Compound 57, 2-[3-(dimethylamino)phenyl]-7-(piperazin-1-yl)-4H-pyrido[1,2-a]pyrimidin-4-one] | * (A maximum fold increase of ≤1.2 is indicated by one star (*)) | 3 to 30 µM |  |
| 131 to 133 °C | O=c1cc(-c2ccc(OC(F)F)cc2)nc2ccc(N3CCNCC3)cn12 [Compound 59, 2-[4-(difluoromethoxy)phenyl]-7-(piperazin-1-yl)-4H-pyrido[1,2-a]pyrimidin-4-one] | * (A maximum fold increase of ≤1.2 is indicated by one star (*)) | 1 to 3 µM |  |
| 153 to 156 °C | O=c1cc(-c2cccc(F)c2)nc2ccc(N3CCNCC3)cn12 [Compound 61, 2-(3-fluorophenyl)-7-(piperazin-1-yl)-4H-pyrido[1,2-a]pyrimidin-4-one] | **** (a fold increase between >1.5 and ≤1.65 is indicated by four stars (****)) | 0.3 to 1 µM | *** (an EC1.5× between >0.3 μM and ≤1 μM is indicated by three stars (***)) |
| 177 to 180 °C | COc1cc(F)c(-c2cc(=O)n3cc(N4CCNCC4)ccc3n2)cc1OC [Compound 64, 2-(2-fluoro-4,5-dimethoxyphenyl)-7-(piperazin-1-yl)-4H-pyrido[1,2-a]pyrimidin-4-one] | ** (a fold increase between >1.2 and ≤1.35 is indicated by two stars (**)) | 3 to 30 µM |  |
| 167 to 170 °C | COc1cc(F)c(-c2cc(=O)n3cc(N4CCN[C@@H](C)C4)ccc3n2)cc1OC [Compound 65, 2-(2-fluoro-4,5-dimethoxyphenyl)-7-[(3S)-3-methylpiperazin-1-yl]-4H-pyrido[1,2-a]pyrimidin-4-one] | ** (a fold increase between >1.2 and ≤1.35 is indicated by two stars (**)) | 3 to 30 µM |  |
